Tested on: Renilla luciferase (R/L) expression
Experiment: Evaluation of delivery efficiency by detection of protein expression level (R/L mRNA-LNP injected intradermally into mouse ear, luminescence of ear lysate)
Type: in vivo, ICR mice
Conditions: ionizable lipid:trehalose-based lipid:DOPE:cholesterol (or substitute):DMG-PEG 25:25:10:38.5:1.5
Protocol: An RNA platform in which a nucleic acid sequence encoding Renilla luciferase (R/L), which has an IRES element derived from encephalomyocarditis virus (EMCV) and is a known reporter gene, was inserted as a target sequence was constructed. The template DNA was designed and the nucleic acid molecule of the single-stranded RNA platform was constructed using an IVT procedure.
Lipid nanoparticles were prepared from 0.625 mg/mL of an RNA solution (50 mM sodium citrate buffer, 110 mM NaCl, pH=4.0) and a lipid-mixture solution (ethanol) using a laboratory mixer and emulsifier (NanoAssembir Spark, Precision NanoSystems) and subjected to solvent conversion with physiological saline using a filter tube for centrifugation (UFC5010, Amicon). […]
The experiment was performed according to the following procedure. […] R/L, which was actually tested, expression, and maintenance were detected at two points of time: after 6 hours and 24 hours.
Each mouse was anesthetized using a respiratory anesthetic, and a drug that satisfied the experimental conditions was injected into the mouse through an insulin syringe. […] Then, 20 μl of the mixture was transferred to a white 96-well plate, 100 μl of Renilla luciferase assay substrate from Promega Corporation was added thereto, and luminescence was measured to compare expression.

Row | SMILES | usability as cholesterol substitute in lipid nanoparticles
1 | CCCCOC(=O)CC[C@H](C)[C@H]1CC[C@H]2[C@@H]3CC[C@@H]4C[C@H](O)CC[C@]4(C)[C@H]3CC[C@]12C [Formula 4] | appropriate cholesterol substitutes
2 | CCC(C)CCOC(=O)CC[C@H](C)[C@H]1CC[C@H]2[C@@H]3CC[C@@H]4C[C@H](O)CC[C@]4(C)[C@H]3CC[C@]12C (some centres unmarked) [Formula 5] | appropriate cholesterol substitutes

Source: patent US12414918B2, “Pharmaceutical composition of lipid nanoparticle for delivering nucleic acid drug containing trehalose derivative and novel structure-maintaining lipid compound” (SML BIOPHARM CO., LTD., priority 2021, dated 2025)
